Laboratory results from patent US7618787B2, “Method of screening compound capable of accelerating or inhibiting apoptosis, apoptosis accelarator and apoptosis inhibitor” (Hisamitsu Pharmaceutical Co., Inc., priority 2004, dated 2009).

Tests used:
[1] = system: L929 cells; assay: Immunoblot of nuclear and cytoplasmic fractions of L929 cells; assay type: cell-based, mouse; conditions: L929 cells (FIG. 9)
Protocol: (§1) To prepare nuclear and cytoplasmic extracts, cells were washed with ice-cold PBS and suspended in lysis buffer (pH 7.5; which contained 10 mM Tris-Cl, 1 mM EDTA, 0.5% Nonidet P-40 (NP-40), 1 mM PMSF, and protease inhibitor mix (Sigma)). The suspended cells were incubated at 4° C. for 30 minutes and centrifuged at 5000 rpm for 10 minutes to collect soluble fractions (which were used as cytoplasmic extracts). Insoluble fractions were washed with lysis buffer and dissolved in 1×Laemmli SDS-sample buffer (pH 6.8; which contained 62.5 mM Tris-Cl, 2% SDS, 2% β-mercaptoethanol, and 0.01% bromophenol blue) to collect nuclear extracts. The nuclear and cytoplasmic fractions were subjected to immunoblot analysis using an anti-lamin B monoclonal (Ab-1; Oncogene Research Products) or anti-α-tubulin monoclonal (DM1A; Cell Signaling Technology) antibody.
(§2) As described above, the amount of nuclear transactivating p65 subunit was not changed in U2OS cells treated with cisplatin. […] U2OS cells transfected with a NF-κB reporter plasmid were treated with cisplatin and assayed for their luciferase activities. […] L929 cells have been used widely for examining the TNF-α-dependent activation of NF-κB.

[2] = system: NF-κB; assay: NF-κB reporter activation in L929 cells; assay type: cell-based, mouse; conditions: L929 cells (FIG. 8)
Protocol: as §2

[3] = system: U2OS cells; assay: Immunoblot of nuclear and cytoplasmic fractions of U2OS cells treated with cisplatin; assay type: cell-based, human
Protocol: as §1, with “antibody. Nuclear and cytoplasmic extracts were prepared from cisplatin-exposed or untreated U2OS cells and subjected to immunoblot with a given antibody. The purity of the nuclear and cytoplasmic fractions was confirmed by immunoblot using anti-lamin B and anti-α-tubulin antibodies, respectively. In agreement with the previously reported results, IKK-α was localized in both the nucleus and the cytoplasm, whereas IKK-β was largely expressed in the cytoplasm (FIG. 4). The amounts of IKK-α, IKK-β, and IKK-γ in the cytoplasm were not changed regardless of cisplatin treatment.” for “antibody.”

[4] = system: U2OS cells; assay: Cell survival assay (MTT) of cisplatin-exposed cells; assay type: cell-based, human; conditions: cisplatin 20 μM, time course (FIG. 1)
Protocol: U2OS cells were seeded at a density of 5×10^3 cells/well to a 96-well tissue culture dish supplemented with 100 μL of complete medium, and then allowed to adhere thereto overnight. A cisplatin stock solution was filtered and sterilized with a filter of 0.45 μm in pore size and diluted with phosphate-buffered saline (PBS). Cisplatin was added at the final concentration of 20 μM to the cultures, followed by cell viability assay. The viability was assayed by a modified 3-(4,5-dimethylthiazol-2-yl)-2,5-diphenyl-tetrazolium bromide (MTT) assay at given time points after the cisplatin addition. The MTT assay was performed by adding 10 μL of MTT solution to each well and incubating the cultures at 37° C. for 1 hour. A microplate reader (Model 450; Bio-Rad) was used to measure the absorbance of each well at 570 nm.

[5] = system: U2OS cells; assay: Immunoblot of cell lysates of U2OS cells treated with cisplatin; assay type: cell-based, human
Protocol: Cells were transiently transfected with a total of 2 μg of expression plasmids. After 48 hours of the transfection, the cells were washed with ice-cold PBS and suspended in lysis buffer (pH 8.0; which contained 25 mM Tris-Cl, 137 mM sodium chloride, 1% Triton X-100, 1 mM phenylmethylsulfonyl fluoride (PMSF), and protease inhibitor mix (Roche Molecular Biochemicals)), followed by brief sonication. After centrifugation at 15000 rpm for 10 minutes, the supernatant was collected and assayed for protein concentrations by the Bradford assay (Bio-Rad). Equal amounts of lysates (protein amount: 50 μg) from the whole cells were denatured by boiling in Laemmli SDS-sample buffer, then separated on 10% SDS-polyacrylamide gel (SDS-PAGE), and transferred at room temperature for 1 hour to polyvinylidene difluoride (PVDF) membranes (Immobilon-P; Millipore) in Tris-glycine buffer containing 10% methanol. The membranes were blocked at room temperature for 1 hour with Tris-buffered saline (TBS-T) containing 5% skim milk and 0.1% Tween 20. Then, the membranes were reacted with an anti-FLAG monoclonal (M2; Sigma), anti-HA monoclonal (12CA5; Roche Molecular Biochemicals), anti-p73 monoclonal (Ab-4; NeoMarkers), anti-p53 monoclonal (DO-1; Oncogene Research Products), anti-Bax monoclonal (6A7; eBioscience), anti-IKK-α polyclonal (M-280; Santa Cruz Biotechnology), anti-IKK-β polyclonal (H-470; Santa Cruz Biotechnology), anti-IKK-γ polyclonal (FL-417; Santa Cruz Biotechnology), anti-p65 polyclonal (C-20; Santa Cruz Biotechnology), anti-IκB-α polyclonal (C-21; Santa Cruz Biotechnology), anti-actin polyclonal (20-33, Sigma), or anti p21^WAF1 polyclonal (H-164; Santa Cruz Biotechnology) antibody used as a primary antibody. After the reaction with the primary antibody, the membranes were reacted at room temperature for 1 hour with a horseradish peroxidase (HRP)-labeled goat anti-mouse or anti-rabbit secondary antibody (Cell Signaling Technologies) diluted 2000-fold in TBS-T. Immunoreactive proteins were finally visualized by use of an enhanced chemiluminescence system (ECL; Amersham Pharmacia Biotech) according to the manufacturer's instruction.

[6] = system: U2OS cells; assay: RT-PCR analysis of RNA from U2OS cells treated with cisplatin; assay type: cell-based, human
Protocol: Total RNA was extracted from U2OS cells exposed to cisplatin (final concentration: 20 μM) by use of RNeasy Mini Kit (Qiagen) according to the manufacturer's protocol. Reverse transcription reaction was performed by mixing the total RNA (5 μg) with SuperScript II reverse transcriptase (Invitrogen) and random primers and incubating the mixture at 42° C. for 1 hour. After the completion of the reaction, cDNA was diluted with water and amplified with 15 μL of reaction solution (which contained 100 μM of each deoxynucleoside triphosphate, 1×PCR buffer, 1 μM of each primer, and 0.2 units of rTaq DNA polymerase (Takara Bio)). GAPDH expression was assayed and used as an internal standard. The PCR amplification products were separated by electrophoresis with 1.5% agarose gel in TAE buffer (40 mM Tris-Cl, 1 mM EDTA) and visualized with ethidium bromide (post-staining).

[7] = system: NF-κB; assay: NF-κB reporter luciferase assay in U2OS cells; assay type: cell-based, human; conditions: U2OS cells transfected with NF-κB reporter plasmid (FIG. 7)
Protocol: as §2

Compound: TNF-α
- nuclear accumulation of p65 [1]: remarkably accumulated p65 in the nucleus
- NF-κB-dependent transcriptional activation [2]: NF-κB-dependent transcriptional activation was observed after 2 hours

Compound: N.N.[Cl][Pt][Cl] [cisplatin]
- cytoplasmic IκB-α ([3]; U2OS cytoplasmic fraction (FIG. 4)): decreased in a time-dependent manner
- nuclear accumulation of IKK-α ([3]; U2OS nuclear fraction (FIG. 4)): remarkably accumulated IKK-α in the nucleus in a time-dependent manner
- nuclear accumulation of p65-NF-κB subunit (RelA) ([3]; U2OS nuclear fraction (FIG. 4)): almost no effect on the nuclear accumulation of p65-NF-κB subunit
- cell viability / apoptosis of U2OS cells [4]: underwent apoptosis in a time-dependent manner
- IKK-α protein level ([5]; 12 to 36 hours after cisplatin exposure (FIG. 2)): remarkably accumulated IKK-α
- IKK-γ (NEMO) protein level ([5]; after 12 hours of cisplatin treatment): transiently increased
- p53 and p73α protein levels ([5]; cisplatin exposure (FIG. 2)): remarkably induced at protein levels
- amount of IKK-β ([5]; cisplatin treatment): hardly changed the amount of IKK-β
- phosphorylated form of IκB-α ([5]; cisplatin treatment): remarkably increased the phosphorylated form of IκB-α
- expression of IKK-α and IKK-β mRNAs ([6]; cisplatin 20 μM (FIG. 3)): not changed
- expression of p53 and p73α mRNAs ([6]; cisplatin 20 μM (FIG. 3)): not induced
- expression level of IKK-γ mRNA ([6]; cisplatin 20 μM, time-dependent (FIG. 3)): remarkable increase
- NF-κB-dependent transcriptional activation [7]: did not enhance NF-κB-dependent transcriptional activation
